# Assay results reported in US20250339426A1, “GCN2 MODULATOR FOR TREATING CANCER” (HIBERCELL, INC., priority 2022, published 2025).
# Legend:
# [1] = tested on: DLD-1 (human colorectal cancer cells); test: In vivo tumor growth inhibition, DLD-1 xenograft; set-up: species or system BALB/c nude mice; settings: 5-fluorouracil 75 mg/kg once a week intravenous
# Procedure: DLD-1 (human colorectal cancer cells): Female 6-8 weeks old BALB/c nude mice were inoculated subcutaneously on the right flank with DLD-1 tumor cells (5×10^6) in 0.1 ml of RPMI1640 medium without serum for tumor development. The treatments were started when the mean tumor size reached approximately 195 mm^3 at Day 7 post inoculation and continued until end of study by twice daily oral gavage dosing of HC-7366 at listed doses (vehicle, 0.3 mg/kg HC-7366, 1 mg/kg HC-7366, 3 mg/kg HC-7366, 10 mg/kg HC-7366, or 30 mg/kg HC-7366, FIG. 10). For the time course study, tumors were harvested at Days 4, 7 and 14. Tumors were then used for IHC and RNAseq experiments (see Example 21).
# (§1) [formula] • 2.2.2 Tumor Measurements: The measurement of tumor size was conducted three times weekly with a caliper and recorded. The tumor volume (mm^3) was estimated using the formula: TV=a×b^2/2, where “a” and “b” is long and short diameters of a tumor, respectively. Tumor volume was calculated using the formula [tumor volume (mm^3)=π/6×length×width^2).
# (§2) Regression was calculated using the formula=100×ΔT/T initial, if ΔT<0. Animals with 0 mm^3 tumor volume (no measurable tumor) for three consecutive measurements were considered as complete responders and animals with 50% tumor regressions were partial responders.
# (§3) The effect of DC101 in combination with HC-7366 in DLD-1 tumor-bearing mice was evaluated using protocols analogous to those described in Example 6. Mice were treated with 3 or 30 mg/kg HC-7366, twice daily by oral gavage. DC101 was administered at 20 mg/kg twice weekly and with twice daily dosing via intraperitoneal injection.
# as §3, with “5-fluorouracil” for “DC101”, “75” for “20”, “once a week,” for “twice weekly and with”, “daily” for “daily dosing”, “intravenous” for “intraperitoneal”
# [2] = tested on: MFE280 (human endometrial cancer cells); test: In vivo tumor growth inhibition, MFE280 xenograft; set-up: species or system Athymic Nude-Foxn1nu mice; settings: PT2977 1 mg/kg twice daily oral
# [3] = tested on: 786-O (human renal cell carcinoma cancer cells); test: In vivo tumor growth inhibition, 786-O xenograft; set-up: species or system BALB/c nude mice; settings: PT-2977 single agent, 0.1 mg/kg twice a day oral
# Procedure: 786-O (human renal cell carcinoma cancer cells): Female 6-8 weeks old BALB/c nude mice were inoculated subcutaneously on the right flank with 786-O tumor cells (5×10^6) in 0.1 ml of RPMI1640 medium without serum for tumor development. […] For the DC101 combination study, DC101 (murine monoclonal anti-VEGFR2 antibody) was dosed at 15 mg/kg twice a week by intraperitoneal injection.
# as §1, §2
# Female 6-8 weeks old BALB/c nude mice were inoculated subcutaneously on the right flank with 786-O tumor cells (5×10^6) in 0.1 ml of RPMI1640 medium without serum for tumor development (see Example 6). […]
# [4] = tested on: NCI-H1975 (human non-small cell lung cancer cells); test: In vivo tumor growth inhibition, NCI-H1975 xenograft; set-up: species or system Athymic Nude-Foxn1nu mice
# Procedure: NCI-H1975 (human non-small cell lung cancer cells): Female 7-8 weeks old Athymic Nude-Foxn1nu mice were inoculated subcutaneously on the right flank with NCI-H1975 tumor cells (2.5×10^6) in 0.1 ml of RPMI1640 medium without serum for tumor development. Single agent HC-7366 was dosed at 3 mg/kg, osimertinib at 2.5 mg/kg and dacomitinib at 15 mg/kg. HC-7366 was combined with either osimertinib or dacomitinib. The vehicle for the groups was 0.5% methyl cellulose. The treatments were started when the mean tumor size reached approximately 205 mm^3 at Day 22 post inoculation and continued until end of study. HC-7366 was given twice daily by oral gavage whereas osimertinib or dacomitinib were administered once a day by oral gavage (FIGS. 131 and 133).
# as §1, §2
# [5] = tested on: GCN2 pathway (p-GCN2, ATF4) in HT1080 cells; test: Western blot analysis of HT1080 cell lysates; assay type: cell-based, human; settings: 100 nM Halofuginone
# Procedure: The HT1080 cells were harvested and counted and diluted to the desired density. 2 mL of cell suspension was added into each well of 6-well cell culture plate. The plates were transferred into 37° C., 5% CO2 incubator overnight. The cells were treated as described above. The media was aspirated, and cells were washed with ice cold phosphate buffered saline (PBS). Ice cold 1× radioimmunoprecipitation assay (RIPA) lysis buffer supplemented with protease and phosphatase inhibitors was added to the cell pellets, on ice. After 30 min on ice the cell lysates were centrifuged at 4° C., 12,000 rpm for 15 minutes and the supernatant collected. Protein concentration was determined using BCA kit. The cell lysates were mixed with 5× sodium dodecyl sulfate (SDS) loading buffer and denatured at 95° C. for 5 minutes. […] After the electrophoresis was completed, the separated protein was transferred to a nitrocellulose membrane using transblot system for 90 min, 300 mA, then the membrane was blocked with (tris-buffered saline) TBS buffer (5% bovine serum albumin (BSA)) for 1 hr at room temperature. The membrane was exposed to the primary antibodies overnight in cold room in TBS buffer (1% BSA). The membrane was then washed with TBS-Tween for 3×10 min at R/T, incubated with secondary antibodies in TBS buffer (1% BSA) for 1 hr at RT. The membrane was washed with TBS-Tween for 3×10 min at R/T and the imaging was acquired with Li—COR imaging system.
# [6] = tested on: MV4-11 (human AML cancer cells); test: In vivo tumor growth inhibition, MV4-11 xenograft; set-up: species or system BALB/c nude mice; settings: venetoclax monotherapy, 50 mg/kg once daily
# Procedure: MV4-11 (human AML cancer cells): Female 6-8 weeks old BALB/c nude mice were inoculated subcutaneously on the right flank with MV4-11 tumor cells (1×10^7) in RPMI 1640 without serum for tumor development. The treatments were started when the mean tumor size reached approximately 150 mm^3 at Day 13 after cell inoculation and continued until end of study by twice daily oral gavage dosing of HC-7366 at listed doses (vehicle, 0.3 mg/kg HC-7366, 1 mg/kg HC-7366, 3 mg/kg HC-7366, 10 mg/kg HC-7366, or 30 mg/kg HC-7366, FIG. 20). For venetoclax combination study, venetoclax was dissolved in 0.5% carboxymethylcellulose (CMC) and co-administered at 50 mg/kg dose once daily (see Example 8).
# as §1, §2
# MV4-11 tumors were collected at the end of the venetoclax combination study described in Example 6. Tumor growth curves are provided of MV4-11 tumors treated with single agent HC-7366 and venetoclax or combination (FIG. 43).
structure (smiles),measurement,setting,value
"O=c1[nH]cc(F)c(=O)[nH]1 [5-fluorouracil, reference compound]",TGI %,[1],~68%
"CS(=O)(=O)c1ccc(Oc2cc(F)cc(C#N)c2)c2c1[C@H](O)[C@H](F)[C@@H]2F [PT-2977, belzutifan, reference compound]",tumor growth inhibition,[2],53%
same,TGI %,[3],~70%
COc1cc2ncnc(Nc3ccc(F)c(Cl)c3)c2cc1NC(=O)/C=C/CN1CCCCC1 [dacomitinib],TGI %,"[4]; dacomitinib alone 15 mg/kg once a day, end of the study, without statistical significance",36%
"O=C(CC1NCCCC1O)Cn1cnc2cc(Br)c(Cl)cc2c1=O (centres unmarked) [halofuginone, reference compound]",GCN2 and ATF4 in cells treated with halofuginone,[5],activation of GCN2 and ATF4
C=CC(=O)Nc1cc(Nc2nccc(-c3cn(C)c4ccccc34)n2)c(OC)cc1N(C)CCN(C)C [osimertinib],partial response (animals/group),"[4]; 50% tumor regressions, doses as in study",1/10
same,TGI,[4]; osimertinib 2.5 mg/kg once a day oral,95%
"CC1(C)CCC(CN2CCN(c3ccc(C(=O)NS(=O)(=O)c4ccc(NCC5CCOCC5)c([N+](=O)[O-])c4)c(Oc4cnc5[nH]ccc5c4)c3)CC2)=C(c2ccc(Cl)cc2)C1 [venetoclax, reference compound]",TGI,[6],62%
